Test results as given in PMC10610505, “Synthesis and Biological Evaluation of Some New 3-Aryl-2-thioxo-2,3-dihydroquinazolin-4(1H)-ones and 3-Aryl-2-(benzylthio)quinazolin-4(3H)-ones as Antioxidants; COX-2, LDHA, α-Glucosidase and α-Amylase Inhibitors; and Anti-Colon Carcinoma and Apoptosis-Inducing Agents” (Pharmaceuticals, 2023).

How the values were obtained:
α-amylase = test: In vitro α-amylase (AA) inhibition assay; conditions: mean ± SD of three replicates; for IC50: read-out: Mean IC50 α-Amylase (AA)
Protocol: Then, 180 µL of Labtest (the amylase substrate) was added and the samples were incubated for 8 min, followed by measuring the first reaction at 620 nm to obtain (X1). Afterwards, the reaction mixture was incubated for an additional 5 min at 37 °C; then, the second reaction was measured to obtain the final reading (X2). […] The results were expressed as IC50 µg/mL (as well as µM) and were determined from the standard curves.

HCT-116 carcinoma cells = test: Annexin-V-FITC/PI flow cytometry, HCT-116; type: cell-based, human; conditions: 50 µg/mL, 48 h; for Early apoptotic cells (Annexin-V positive, PI negative): lower right quadrant; for Late apoptotic cells (Annexin-V and PI positive): upper right quadrant
Protocol: In order to examine the effect of compounds 3a and 3f on the apoptosis of HCT-116 and LoVo carcinoma cells, the Annexin-V-FITC probe was used and flow cytometry analyses were performed (Figure 7).
The percentages of the early apoptotic cells (Annexin-V positive and propidium iodide, PI negative) and late apoptotic cells (both Annexin-V and PI positive) were then calculated. Annexin V-PI staining was also performed to distinguish apoptotic and necrotic cell deaths.
The distribution of early and late apoptotic cells after treatment with compounds 3a and 3f was carried out using an Annexin V-FITC Apoptosis Detection Kit (BioVisionResearch Products—USA). HCT-116 and LoVo carcinoma cells were seeded in 60 mm^2 culture dishes and treated with the vehicles DMSO, and compounds 3a and 3f (50 µg/mL) for 48 h. Cells were then harvested, washed twice with PBS and resuspended in an Annexin-V binding buffer (BioVisionResearch Products—USA). Finally, the cells were stained with Annexin V-FITC and propidium iodide (PI). The fluorescent intensity of the stained cancer cells was determined using an FITC signal detector (usually FL1) and PI staining with the phycoerythrin emission signal detector (through quadrant statistics for necrotic and apoptotic cell populations).

| Compound | Mean IC50 α-Amylase (AA) (α-amylase) [µg/mL] | IC50 (α-amylase) [µM] | Early apoptotic cells (Annexin-V positive, PI negative) (HCT-116 carcinoma cells) [%] | Late apoptotic cells (Annexin-V and PI positive) (HCT-116 carcinoma cells) [%] |
| --- | --- | --- | --- | --- |
| O=c1c2cc(Cl)ccc2[nH]c(=S)n1-c1ccc([N+](=O)[O-])cc1 [Compound 3f, 6-Chloro-3-(4-nitro-phenyl)-2-thioxo-2,3-dihydro-1H-quinazolin-4-one] | 111.667 ± 3.512 | 335 | 9.59 | 5.32 |
| O=c1c2cc(Cl)ccc2[nH]c(=S)n1-c1cccc(C(F)(F)F)c1 [Compound 3a, 6-Chloro-2-thioxo-3-(3-trifluoromethyl-phenyl)-2,3-dihydro-1H-quinazolin-4-one] | 124.333 ± 4.042 | 349 | 14.6 | 6.56 |
